Measurements: patent publication US10111846B2, “S isomers of alpha-methyl-hydrocinnamic acid for the treatment of blood disorders” (priority 2009, dated 2018)
Entries after “also recorded” stand apart in the source; their conditions may differ.

Assays:
[1] = system: erythropoiesis and myelopoiesis; experiment: In vitro cell culture testing of stimulation of erythropoiesis and myelopoiesis; type: cell-based; conditions: for concentration giving stimulation of erythropoiesis and myelopoiesis: cell culture, data not shown
From the text: ST7S is shown to stimulate myelopoiesis and erythropoiesis in animal subjects. […] Thus, the employed concentration of S isomer is about 4-fold lower than that of racemate to achieve similar degrees of erythropoiesis and myelopoiesis.

erythropoiesis [2] = experiment: ST7 once daily to mice for 5 days: erythropoiesis (hematocrit, hemoglobin); type: in vivo; conditions: once daily for 5 days, by day 14
erythropoiesis [3] = experiment: Oral ST7 in baboon with daily phlebotomy, chronic anemia; type: in vivo; conditions: oral 50 mg/kg per day, 5 days a week over 3 weeks
[4] = system: WBC and neutrophil counts; experiment: WBC and absolute neutrophil counts (ANC) in baboons; type: in vivo, baboon
Experimental: FIG. 12 is a graph showing increase in both white blood cells (WBC) and Absolute neutrophil counts (ANC) after oral administration of 200 mg/kg ST7S on days 0-4 results in a 3-fold stimulation in WBC and neutrophil counts over 6 days.
In particular, oral administration of ST7 to a baboon results in a 3-fold stimulation of WBC count over 6 days (FIG. 2A).

[5] = system: human hematopoietic cultures; experiment: CFU-GM colony formation in human hematopoietic cultures; type: cell-based
platelet counts = experiment: Platelet counts in nonhuman primates; type: in vivo, baboon; conditions: IV to 3 baboons on days 1-3 and 7-9
Experimental: ST7 was administered via IV to baboons on days 1-3 and 7-9. ST7 works as similarly in all three baboons (Baboon numbers: GG24, FM45, FM83).
Administration of ST7 also increases platelet levels after administration to non-human primates.

[6] = system: Chemotherapy-Induced Neutropenia Murine Model; experiment: Chemotherapy (5-FU)-induced neutropenia murine model; type: in vivo, mice
Experimental: Mice were treated with 5-FU on day 0, then received daily SC injection of saline or ST7 or G-CSF beginning on Day 1 and absolute neutrophil counts (ANC) were assessed on days 0, 9 and 13.
Additionally, administration of ST7 also enhances Myeloid Recovery in a Chemotherapy-Induced Neutropenia Murine Model. Mice were treated with 5-FU on day 0, then received daily SC injection of saline (control) or ST7 or G-CSF beginning on Day 1 and the absolute neutrophil counts (ANC) were assessed on days 0, 9 and 13.

Mcl-1L to Mcl-1S = experiment: Western blot of Mcl-1L to Mcl-1S protein expression (anti-apoptotic proteins); type: cell-based; conditions: after exposure
From the text: (§1) FIG. 7A is a histogram showing hemokines SCFADs induce anti-apoptotic proteins. FIG. 7B is a western blot of Mcl-1L to Mcl-1S protein expression (with β-actin as a protein loading control).

[7] = system: cultured normal human neutophils; experiment: Human neutrophil survival in vitro; type: cell-based; conditions: 200 μM, 50 μM
From the text: as §1

[8] = PK profiles after oral and IV administration in baboons; type: in vivo
Experimental: (§2) FIGS. 8A-8B show […] and oral bioavailability of ST7. […] Target does equivalent to 20 mg/kg in an adult human.
(§3) Accordingly, ST7 is suitable for once/day dosing.

[9] = Oral administration to a normal human subject, plasma levels; type: in vivo
Experimental: as §2, §3

[10] = system: sub-lethally irradiated mouse model; experiment: Sub-lethally irradiated (6 Gy) mouse model, ANC; type: in vivo, mice; parameters: platelet level, level below which decrease was prevented at any timepoint / ANC, level below which decline was prevented at any time: unit not given here
Experimental: FIG. 9 is a graph of absolute neutrophil count (ANC) response to NaST7 (500 mg/kg IP and 300 mg/kg IP) after sub-lethal does of irradiation where mice were exposed to 6 Gy irradiation on day 0 and daily ST7 (enantiomer) was administered at two doses, beginning day 1.
(§4) In particular, absolute neutrophil count (ANC) increased after administration of NaST7 (500 mg/kg IP and 300 mg/kg IP) after sub-lethal does of irradiation (e.g., exposure to 6 Gy irradiation on day 0).

bone marrow = experiment: Lethally-irradiated murine model, bone marrow histology; type: in vivo, mice; conditions: LD90 irradiation day 0, daily SC from day 1, day 15
Experimental: Mice were irradiated at LD90 on day 0, and received daily SC injections of ST7-S or saline (control) starting Day 1. Bone marrow was examined on Day 15.
as §4

[11] = oral 200 mg/kg on days 0-4, over 6 days

In the case of `CC(Cc1ccccc1)C(=O)O` (racemic) [ST7, α-methyl-hydrocinnamic acid], the “concentration giving stimulation of erythropoiesis and myelopoiesis” value [1] is reported as “about 200 μM”, the hematocrit (erythropoiesis [2]) is reported as “significant increase in hematocrit” and the “absolute increase in hematocrit level” value (erythropoiesis [3]) is reported as 7 percentage points. For the same compound, the “increase in hematocrit level, % of baseline” value (erythropoiesis [3]) was 28%, the “increase in total hemoglobin level” value (erythropoiesis [3]) was 2.5 g/dL and the “stimulation of WBC count” value ([4]; baboon, oral, over 6 days) was 3 fold. For the same compound, the CFU-GM colony formation [5] was “increases CFU-GM Colony formation”, the platelet count (platelet counts) was “stimulation of platelet count in all animals; also recorded: increased platelet counts” and the “recovery of ANC” value ([6]; 5-FU day 0, daily SC injection from day 1, day 13) was “accelerated recovery of ANC by day 13 as efficiently as G-CSF”. For the same compound, the “increase in NE (K/μL) as compared to saline control” value ([6]; day 13) was 7-10 fold, the “ratios of Mcl-1L to Mcl-1S” value (Mcl-1L to Mcl-1S) was “shifted towards anti-apoptotic actions” and the apoptosis of neutrophils [7] was “suppresses apoptosis”. For the same compound, the bioavailability ([8]; baboon, in vivo, po, non-human primates, 113 mg/kg) was greater than 90%, the “PK profiles oral versus IV” value ([8]; non-human primates) was “nearly identical PK profiles” and the “drug levels relative to target dose” value ([9]; normal human subject, oral 1 or 1.4 grams) was “persist above the target dose for several hours”. The “ANC, level below which decline was prevented at any time” value ([10]; 500 mg/kg IP and 300 mg/kg IP daily from day 1, 6 Gy on day 0) was no less than 200 and the “platelet level, level below which decrease was prevented at any timepoint” value ([10]; 500 mg/kg IP and 300 mg/kg IP daily from day 1, sub-lethal irradiation) was no less than 200.

With `CC(Cc1ccccc1)C(=O)[O-].[Na+]` (stereo not drawn) [ST7S, S-isomer of alpha-methyl-hydrocinnamic acid] the “fold lower concentration of S isomer than racemate for similar degrees of erythropoiesis and myelopoiesis” value [1] was “about 4 fold”, the “concentration giving stimulation of erythropoiesis and myelopoiesis” value [1] was “about 50 μM” and the “neutrophil counts (ANC), short-term administration” value ([4]; baboons, 100 mg/kg at day 0-2 and day 7-9) was “increases neutrophil counts”. For the same compound, the “neutrophil counts (ANC), long term” value ([4]; baboons, 47 days, administered at 1-5 days and 34-38 days) was “increases neutrophil counts; also recorded: Neutrophil counts increase”, the “stimulation in WBC” value [4, 11] was 3 fold and the “stimulation in neutrophil counts” value [4, 11] was 3 fold. For the same compound, the “time available after administration” value ([8]; about 113 mg/kg administered orally, FIG. 8A) was “at least 4 hours”, the “time available after administration” value ([9]; about 1.4 g administered orally, FIG. 8B) was “at least 14 hours” and the bone marrow histology (bone marrow) was “stimulates bone marrow recovery; also recorded: normocellular marrows”.
